This is an account of results in patent EP0571928A1, “Acyclic Tocotrienol analogs in the treatment of hypercholesterolemia and hyperlipidemia” (Bristol-Myers Squibb Company, priority 1992, dated 1993).

What is called inhibition is the relative decrease from the control value, in per cent.

In one test the test system is cholesterol biosynthesis in HepG2 cells. The test is described as follows: HepG2 cell culture model - 14C-acetate incorporation assay (cholesterol synthesis). In kind it is cell-based. The following applies: 3-4 hours incubation, 2-14C-acetate incorporation into digitonin-precipitable sterols, vs. vehicle controls. The method, then:
HepG2 Cell Culture Model - 14C-Acetate Incorporation Assay
After 16 hours in LDS containing media, test compounds were added in dimethylsulfoxide vehicle (0.5% v/v final conc.) for an incubation period of 3-4 hours. Cholesterol synthesis was then directly determined by 2-14C-acetate (1.8 mCi/mmol, 0.5 µCi/ml) incorporation for 30 to 60 minutes (previously shown to be time-linear) into total digitonin-precipitable sterols. […] Percent inhibition was calculated from the average of duplicates vs. triplicate vehicle controls conducted simultaneously.
For the compound “4-[2-(5,9,13)-Trimethyl-4(E), 8(E), 12-tetradecatrienyl)-1,3-dithian-2-yl]phenol [Example 34]”, the “Sterol Biosynthesis % Inhibition 10µM” value is listed as 43%. Consider “3,5-Dimethoxy-4-[(5,9,13-Trimethyl-4(E), 8(E), 12-tetradecatrienyl)oxy]phenol [Example 16]”, for which the “Sterol Biosynthesis % Inhibition 10µM” value was found to be 66%.

The same test, now with this note: Homo sapiens, 3-4 hours incubation, 2-14C-acetate incorporation into digitonin-precipitable sterols, vs. vehicle controls, read-out: Sterol Biosynthesis % Inhibition 10µM.
`CC(C)=CCC/C(C)=C/CC/C(C)=C/CCCOc1ccc(C(N)=O)cc1` [Example 23, 4-[(5,9,13-Trimethyl-4(E),8(E),12-tetradecatrienyl)oxy]benzamide]: the inhibition at 10 µM came out at 42%. On the same count and under the same terms, under `CC(C)=CCC/C(C)=C/CC/C(C)=C/CCCOc1ccc(N)cc1` [Example 24, 4-[(5,9,13-Trimethyl-4(E), 8(E),12-tetradecatrienyl)oxy]aniline] stands 65%; under `CC(C)=CCC/C(C)=C/CC/C(C)=C/CCCOc1ccc(O)c(CCO)c1` [Example 18, 2-Hydroxy-5-[(5,9,13-Trimethyl-4(E), 8(E), 12-tetradecatrienyl)oxy]benzene ethanol], 64%; under `CC(C)=CCC/C(C)=C/CC/C(C)=C/COc1ccc(O)c(C)c1C` [Example 9, 2,3-Dimethyl-4-[(3,7,11-Trimethyl-2(E), 6(E), 10-dodecatrienyl)oxy]phenol], 36%.

For `CC(C)=CCC/C(C)=C/CC/C(C)=C/CCCCc1ccc(O)cc1` [Example 33, 4-[6,10,14-Trimethyl-5(E), 9(E), 13-Pentadecatrienyl]phenol], the inhibition at 10 µM stood at 50%. Still for that read-out and setting: under `CC(C)=CCC/C(C)=C/CC/C(C)=C/CCCOc1c(C)cc(O)c(C)c1C` [Example 15, 2,3,5-Trimethyl-4-[(5,9,13-Trimethyl-4(E),8(E), 12-tetradecatrienyl)oxy] phenol] stands 48%; under `CC(C)=CCC/C(C)=C/CC/C(C)=C/CCCOc1ccc(S(N)(=O)=O)cc1` [Example 28, 4-[(5,9,13-Trimethyl-4(E), 8(E),12-Tetradecatrienyl)oxy] benzenesulfonamide], 58%. For `CC(C)=CCC/C(C)=C/CC/C(C)=C/CCCOc1ccc(B2OB(c3ccc(OCCC/C=C(\C)CC/C=C(\C)CCC=C(C)C)cc3)OB(c3ccc(OCCC/C=C(\C)CC/C=C(\C)CCC=C(C)C)cc3)O2)cc1` [Example 29, 2,4,6-Tris-[4-[(5,9,13-Trimethyl-4(E), 8(E),12-tetradecatrienyl)oxy]phenyl]boroxin], the inhibition at 10 µM amounted to 99%. The same measure, in the same setting: for `CC(C)=CCC/C(C)=C/CC/C(C)=C/CCCOc1cccc(CO)c1` [Example 22, 3-[(5,9,13-Trimethyl-4(E), 8(E),12-Tetradecatrienyl)oxy]benzenemethanol] the value was 73%; for `CC(C)=CCC/C(C)=C/CC/C(C)=C/CCC(C)(C)Oc1ccc(O)cc1` [Example 39, 4-[(1,1,5,9,13-Pentamethyl-4(E), 8(E), 12-tetradecatrienyl)oxy]phenol hydrate], 37%. The same measure, in the same setting: under `CC(C)=CCC/C(C)=C/CC/C(C)=C/CCCOc1ccccc1` [Example 5, (5,9,13-Trimethyl-4(E), 8(E),12-tetradecatrienyl)oxy benzene] stands 12%. On the same count and under the same terms, under `CC(C)=CCC/C(C)=C/CC/C(C)=C/CCCOc1c(C)cc(N)cc1C` [Example 26, 3,5-Dimethyl-4-[(5,9,13-Trimethyl-4(E), 8(E),12-tetradecatrienyl)oxy] aniline] stands 51%; under `COC(=O)Nc1cc(C)c(OCCC/C=C(\C)CC/C=C(\C)CCC=C(C)C)c(C)c1` [Example 27, N-[[3,5-Dimethyl-4-[(5,9,13-Trimethyl-4(E), 8(E), 12-tetradecatrienyl)oxy]]phenyl]methyl carbamate], 47%.

Turning to `CC(C)=CCC/C(C)=C/CC/C(C)=C/CCCN(C(=O)OC(C)(C)C)c1ccc(O)cc1` [Example 37, 1,1-Dimethylethyl-(4-Hydroxyphenyl)-(5,9,13-Trimethyl-4(E), 8(E), 12-tetradecatrienyl) carbamate], the inhibition at 10 µM came to 79%.
